# Results taken from US20240424010A1, “NICOTINAMIDE RIBOSIDE TRIOLEATES CHLORIDE, COMPOSITIONS CONTAINING THIS COMPOUND, AND METHODS OF MAKING AND USING THIS COMPOUND” (SOCIETE DES PRODUITS NESTLE S.A., priority 2021, published 2024).
# Assays:
# [1] = test system: porcine pancreatin
# Procedure: In vitro digestion of NRTOCl in pure form and dissolved in MCT oil was investigated in the following procedures.
# The buffer for simulated intestinal phase was prepared according to the following protocol.^29 Specifically, 60 mg of NRTOCl was dissolved in 0.3 mL ethanol and added to 10 g of a buffer solution containing 400 mg bile bovine. 0.75 mL of a CaCl2 solution (0.3 M) was added to this mixture, and the pH was adjusted around 7 by using HCl (1 M). Then, 400 mg of fresh porcine pancreatin was dispersed in 4 mL of buffer solution and added to the mixture. The sample was placed in an incubator (250 rpm) at 37°° C. for 30 minutes. Subsequently, the sample was taken out of the incubator to adjust the pH to around 7 and returned to the incubator for another 30 minutes. The incubation steps and adjusting pH were repeated every 30 minutes until 2 hours were over. For quenching the enzyme, the sample was placed in an ice bath, and then 1.5 mL of the sample was centrifuged at 14,000 rpm for 10 minutes. Finally, the aqueous phase was separated and filtered by a 0.22 μm filter for determination of released NR and nicotinamide.
# 60 mg of NRTOCl was dissolved in 150 mg of MCT oil to prepare 29% w/w NRTO in MCT oil. Aqueous phase was 10 g of the buffer solution containing 400 mg bile bovine. The oil phase was added to the aqueous phase and homogenized at […] for 150 seconds at room temperature. 0.75 mL of a CaCl2 solution (0.3 M) was added to this mixture, and the pH was adjusted around 7 by using HCl (1 M). Then, 400 mg of fresh porcine pancreatin was dispersed in 5 mL of buffer solution and added to the mixture. The sample was placed in an incubator (250 rpm) at 37° C. for 30 minutes. Then, the sample was taken out of the incubator to adjust the pH to around 7 (by NaOH 1 M) and returned to the incubator for another 30 minutes. The incubating and adjusting pH steps were repeated every 30 minutes until 2 hours were over. For quenching the enzyme, the sample was placed in an ice bath and then 1.5 mL of the sample was centrifuged at 14000 rpm for 10 min. Finally, the aqueous phase was separated and filtered by a 0.22 μm filter for determination of released NR and nicotinamide.
# After the NRTOCl stability study in different conditions, the digestibility of this compound to produce NR in simulated intestinal fluid was studied. This enzymatic digestion used porcine pancreatin, bile bovine, and a buffer solution at pH around 7.^29 The lipase enzyme in porcine pancreatin can hydrolyze the fatty ester groups to produce NR, NRDO (nicotinamide riboside dioleates), NRMO (nicotinamide riboside monoleate) and oleic acid as the main products of digestion (FIG. 16). Moreover, nicotinamide (NAM) and ribose-trioleates (RTO) can be formed as the products of hydrolysis of NRTO not digestion. By considering this hypothesis, the NRTO digestion was studied in simulated intestinal phase.
# At first, the digestion study was followed by dissolving pure NRTOCl (60 mg) in 0.3 mL of ethanol, and then this solution was added to 10 mL of buffer solution containing 400 mg of bile bovine to disperse NRTO in bile bovine solution. After that, 0.75 mL of CaCl2 solution (0.3M) was added to this mixture, and the pH was adjusted to 7.0 by adding HCl (1 M). […] The released NR and nicotinamide from the sample was measured by LC-MS and HPLC analyses.
# [2] = Particle size, zeta-potential (dynamic light scattering) and TEM of NRTOCl dispersion and emulsions; type: physicochemical
# Procedure: The particle size distribution, mean particle diameter (Zeta average size) and zeta-potential of NRTOCl in DI water were measured by using a commercial dynamic light-scattering device (Nano-ZS, Malvern Instruments, Worcestershire, UK). Tecnai F20 TEM/STEM transmission electron microscope (200 kV) was used for characterizing the structure and morphology of prepared NRTOCl nanoparticles. Although NRTOCl is a quaternary ammonium salt, it was not dissolved in water due to the existence of three groups of oleate fatty ester in its structure. Therefore, for the stability study of NRTOCl, this compound was dispersed in DI water using 1% ethanol as a cosolvent. For this purpose, 15 mg of NRTOCl was dissolved in 0.15 ml of ethanol (1%) and then 14.85 ml of DI water was added to the mixture and gently shaken. […] Although the average size of NRTOCl in this sample was 192 nm, the images of TEM disclosed smaller particles with around 50 nm and oval and spherical shapes with aspect ratio close to unity (FIGS. 10A-10C). In the nanoparticles, the NRTOCl structures are stacked on top of each other layer-by-layer. The highly positive charge of NRTO makes the nanoparticles stable in the aqueous phase. […] The total oil phase in these emulsions were 3.2 wt. %, and the concentration of NRTOCl in total volume of each emulsion (15 mL) was 4.4 mM. In the emulsions that used Na-caseinate as an emulsifier, NaN3 (0.01 wt. %) was added to prevent the growth of bacteria. […] An NRTO in canola oil-in-water emulsion was also prepared, using 2 wt. % Tween 80 as an emulsifier in DI water (Tween emulsion). […] As expected by using Tween 80 as a neutral emulsifier, the positive charge of NRTO droplets was almost intact in the emulsion.
# [3] = Hydrolysis stability of NRTOCl emulsions and NRCl in water at room temperature for 42 days; type: physicochemical
# Procedure: After each specific time of stability for NRTOCl and NRCl emulsions, 1.5 mL of each emulsion was centrifuged (14,000 rpm) for 20 minutes at room temperature. […] However, during this time of stability study, 52.0% NR was intact in water at room temperature. […] During this time, these emulsions were stable without visible phase separation. A little increase in the average size of the NRTO droplets occurred in these emulsions, so that in Cas emulsion, the average size increased from 1020 nm to 1281 nm, and in Cas-Lec emulsion, this parameter increased from 1012 nm to 1106 nm.
# [4] = NRTOCl dispersed in DI water with 1% ethanol, 1,000 ppm
structure (smiles),measurement,setting,value
"CCCCCCCC/C=C\CCCCCCCC(=O)OC[C@H]1O[C@@H]([n+]2cccc(C(N)=O)c2)[C@H](OC(=O)CCCCCCC/C=C\CCCCCCCC)[C@@H]1OC(=O)CCCCCCC/C=C\CCCCCCCC.[Cl-] [NRTOCl, nicotinamide riboside trioleates chloride]",NRTO completely digested,[1],at least 27.5%
same,digestibility to release NR,[1],digestible
same,nicotinamide detected (N-glycosidic bond hydrolysis) during digestion,[1],3.9%
same,nicotinamide measured (N-glycosidic bond hydrolysis) during digestion,[1],2.4%
same,ribose-trioleates formed during digestion,[1],2.4%
same,particle size (average size),[2]; [4],192 nm
same,zeta potential,[2]; [4],+65 mV
same,particle size by TEM,"[2]; NRTOCl dispersed in DI water, TEM images",around 50 nm
same,released NR from NRTO (hydrolysis of ester groups),[3]; all NRTO stability conditions,no released NR
same,hydrolysis of NRTO after 42 days,"[3]; canola oil-in-water emulsion (sodium caseinate), room temperature, 42 days",5%
